Results on 1 compound are retold here after BindingDB's records for doi:10.1021/jm0504499 (Universit&#224, 2005).

Experiment [1] has as its target Metabotropic glutamate receptor 2 (Rattus norvegicus) (UniProt P31421). The experiment can be described thus: Binding affinity for mGluR2 receptor expressed in CHO cells.
Experiment [2] shares this target. Kind of experiment: Effective concentration against mGluR2 receptor expressed in CHO cells.

Where only a bound is given, the exact number is not on record here.

Sequence of Metabotropic glutamate receptor 2 (Rattus norvegicus) (P31421 whole entry, looked up): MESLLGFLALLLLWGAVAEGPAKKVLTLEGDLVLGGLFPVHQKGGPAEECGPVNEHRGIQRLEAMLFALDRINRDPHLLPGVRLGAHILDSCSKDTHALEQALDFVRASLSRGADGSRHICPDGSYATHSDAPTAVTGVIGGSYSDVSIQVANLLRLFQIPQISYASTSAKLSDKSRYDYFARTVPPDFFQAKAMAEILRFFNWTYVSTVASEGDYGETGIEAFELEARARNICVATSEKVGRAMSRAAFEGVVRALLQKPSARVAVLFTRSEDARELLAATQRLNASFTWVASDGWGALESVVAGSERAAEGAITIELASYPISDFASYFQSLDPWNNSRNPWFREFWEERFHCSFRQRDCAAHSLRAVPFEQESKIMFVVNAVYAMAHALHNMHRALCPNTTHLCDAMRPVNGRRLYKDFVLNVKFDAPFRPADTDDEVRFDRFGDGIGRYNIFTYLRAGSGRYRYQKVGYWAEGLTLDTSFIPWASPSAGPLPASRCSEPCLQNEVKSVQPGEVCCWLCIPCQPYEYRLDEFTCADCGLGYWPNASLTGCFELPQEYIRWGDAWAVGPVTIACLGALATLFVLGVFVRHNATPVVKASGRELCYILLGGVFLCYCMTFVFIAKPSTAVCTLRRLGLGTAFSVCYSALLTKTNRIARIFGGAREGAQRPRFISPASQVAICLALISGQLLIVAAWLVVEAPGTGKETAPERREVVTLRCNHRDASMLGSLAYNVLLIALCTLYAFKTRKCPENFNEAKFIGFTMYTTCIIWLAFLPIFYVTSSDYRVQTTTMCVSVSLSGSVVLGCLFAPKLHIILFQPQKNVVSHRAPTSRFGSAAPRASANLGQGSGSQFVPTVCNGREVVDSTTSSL

Consider `N[C@@H](C[C@H]1CC(C(=O)O)=NO1)C(=O)O` [5-(2-Amino-2-carboxy-ethyl)-4,5-dihydro-isoxazole-3-carboxylic acid], for which, in experiment [1], the Ki – broadly, a dissociation constant, usually derived from enzyme kinetics or from competition with a known ligand – was above 1000 µM. In experiment [2], the EC50 – broadly, the concentration at which the effect is half-maximal – is above 1000 µM.
